In ChEMBL document CHEMBL3232861, “Metabolites of antroquinonol found in rat urine following oral administration” (J Nat Prod, 2014) one finds Drug excretion data, which are given here for five compounds.

Common to all, as to assay type: ADME, organism-based
Holding throughout (design): dose 200 mg/kg, route oral
Details in all cases: in vivo

The nature of series [1]: Drug excretion in Wistar rat urine treated with antroquinonol at 200 mg/kg, po administered via gavage measured after 24 hrs by HPLC-SPE-TT-NMR analysis.
The nature of series [2]: Drug excretion in Wistar rat urine assessed as (E)-6-((1R,2R,6R)-2-Hydroxy-3,4-dimethoxy-6-methyl-5-oxocyclo-hex-3-enyl)-4-methylhex-4-enoic acid level at 200 mg/kg, po administered via gavage measured after 24 hrs by HPLC-SPE-TT-NMR analysis.
The nature of series [3]: Drug excretion in Wistar rat urine assessed as (E)-6-((1R,2R,6R)-2-Hydroxy-3,4-dimethoxy-6-methyl-5-oxocyclo-hex-3-enyl)-4-methylhex-3-enoic acid level at 200 mg/kg, po administered via gavage measured after 24 hrs by HPLC-SPE-TT-NMR analysis.
Series [4] can be described thus: Drug excretion in Wistar rat urine assessed as (E)-6-((1R,2R ,6R)-2,5-Dihy droxy-4-methoxy-6-methyl-3-oxocyclo-hex-4-enyl)-4-methylhex-3-enoic acid level at 200 mg/kg, po administered via gavage measured after 24 hrs by HPLC-SPE-TT-NMR analysis.
Series [5] can be described thus: Drug excretion in Wistar rat urine assessed as (E)-6-((1R,2R ,6R)-2,5-Dihy droxy-4-methoxy-6-methyl-3-oxocyclo-hex-4-enyl)-4-methylhex-4-enoic acid level at 200 mg/kg, po administered via gavage measured after 24 hrs by HPLC-SPE-TT-NMR analysis.

On to `COC1=C(O)[C@H](C)[C@@H](C/C=C(\C)CCC(=O)O)[C@@H](O)C1=O`, for which, in series [1], the Drug excretion result is “metabolite_detected”.
Same read-out and setting: to `COC1=C(O)[C@H](C)[C@@H](CC/C(C)=C/CC(=O)O)[C@@H](O)C1=O` belongs “metabolite_detected”; to `COC1=C(OC)[C@H](O)[C@H](C/C=C(\C)CCC(=O)O)[C@@H](C)C1=O`, “metabolite_detected”.
Consider `COC1=C(OC)[C@H](O)[C@H](C/C=C(\C)CC/C=C(\C)CCC=C(C)C)[C@@H](C)C1=O` [ANTROQUINONOL], for which the Drug excretion result in series [2], in series [3], in series [4] and in series [5] was “metabolite_detected” each time.
`COC1=C(OC)[C@H](O)[C@H](CC/C(C)=C/CC(=O)O)[C@@H](C)C1=O`: the Drug excretion entry in series [1] is “metabolite_detected”.
